Experimental data taken from patent US20100113599A1, “AMPHIPATHIC CARBOXYLATES FOR THE TREATMENT OF IMMUNE-RELATED DISORDERS” (Syndromex Ltd. c/o Yissum Research Development Company, of, priority 2007, published 2010).

Legend:
[1] = test system: liver APP (SAP, SAA, α-fibrinogen) and IL-6 gene expression; assay: Liver Acute Phase Proteins and IL-6 gene expression in EAE mice (real time PCR); type: in vivo; settings: EAE mice 60 mg/kg/day 12 days by gavage
Description: To further investigate the preventive potential of MEDICA drugs, and specifically of M16αα on EAE model, the effect of these drugs on different pathways involving activation of the immune system have been next examined. Therefore, female mice were treated with M16αα (60 mg/kg/day) or vehicle (1% CMC, the control group) for 12 days by gavage. On the third day EAE has been induced by injection of the MOG35-55 peptide. Nine days following MOG35-55 peptide immunization, mice were anesthesized and sacrificed. Spleenocytes were prepared and were stimulated in vitro with either MOG (100 μg/ml) or LPS (50 μg/ml) and the activation of STAT3 was analyzed by Western blot using anti p-STAT3 (Y705) and anti GP130 antibodies. Liver was immediately frozen in liquid nitrogen and kept at −70 until used for protein and RNA preparation. Total RNA was prepared and analyzed by real time PCR for SAP, SAA, α-fibrinogen and IL-6 gene expression.

U266 cells [2] = assay: Growth of Multiple Myeloma U266 cells, Trypan Blue exclusion; type: cell-based; settings: 200 μM, day 6
Description: Growth Suppression by M16αα of Multiple Myeloma (MM) cells. MM cells were incubated in RPMI 1640 medium in the presence of added M16αα as indicated. Cell number was determined daily by Trypan Blue exclusion.
The inhibitory effect of MEDICA drugs on colon tumor cell proliferation, presumably via activation of apoptosis, encouraged the inventors to further investigate the potential beneficial effect of these compounds on other malignancies. The inventors therefore next examined the effect of the MEDICA drugs using the Multiple myeloma model. U-266 and RPMI-8226 cell lines served as cell models for MM. MM cells were incubated in RPMI 1640 medium in the presence of M16αα as indicated. Cell number was determined daily by Trypan Blue exclusion assay. […] It should be noted that generally, these cells were more sensitive even to lower concentrations of M16αα.

human CRP [3] = assay: Basal plasma human CRP in hCRPtg mice (ELISA); type: in vivo; settings: 80 mg/kg/d by gavage for ten days, before treatment 0.619
Description: hCRPtg were treated for 10d with M16αα (80 mg/kg/d) dissolved in 1% CMC and administered by gavage. Plasma basal CRP was determined before and at the end of treatment by ELISA.
Unlike human CRP, mouse CRP is not an acute-phase reactant, and is synthesized hi trace amounts only. However, male hCRP transgene mice (hCRPtg), having the human CRP gene flanked by most of human CRP promoter integrated in their genome, constitutively produce human CRP, with serum levels ranging between 10 and 20 μg/mL.
(§1) Therefore, hCRPtg mice were treated for ten days with M16αα (80 mg/kg/d) dissolved in 1% CMC and administered by gavage. Plasma CRP was determined by ELISA at the beginning and at the end of treatment. […] The inventors further examined the effect of the MEDICA drugs on LPS-induced CRP. Therefore, CRP expression was analyzed in hCRPtg mice treated with M16αα 0.06% (W/W) (about 60 mg/kg body weight/day) for fourteen days and challenged with LPS (25 μg/mice) for the last 18 h. As illustrated by the histogram of FIG. 25, treatment with M16αα decreases LPS-induced levels of human CRP.

[4] = test system: Experimental Autoimmune Encephalomyelitis (EAE); assay: EAE (MOG35-55) model for MS, clinical score; type: in vivo, female C57BL/6 mice; settings: for day of fully established EAE: control day 24
U266 cells [5] = assay: Apoptosis markers (PARP, Bcl-2, Bcl-xL) in MM U266 cells (Western blot); type: cell-based; settings: 200 μM
Description: U266 cells were cultured with 200 μM M16αα for time periods as indicated, lysed, Western blotted and reacted with anti STAT3, p-STAT3 (Y705), PARP or Bcl-xL antibodies.
To examine the possibility that the inhibitory effect of M16αα, on Multiple Myeloma may be mediated by enhancement of pro apoptotic mechanism and induction of cell cycle arrest, U266 cells were cultured with 200 μM M16αα in RPMI 1640 medium with 10% FCS for time periods as indicated, lysed, Western blotted and reacted with anti STAT3, p-STAT3 (Y705), PARP or Bcl-xL and Bcl-2 as indicated.

HT29 colon cancer cells = assay: BrdU incorporation assay in HT29 colon cancer cells; type: cell-based; settings: 200 μM
Description: Cells were cultured in Dulbecco's Modified Eagle Medium (DMEM) supplemented with 10% fetal calf serum, glutamine and antibiotics (100,000 units/L penicillin and 100 mg/L streptomycin sulfate).
The involvement of MEDICA drugs in signal transduction pathways related to immuno-modulatory mechanisms have led the inventors to further investigate the effect of the MEDICA drugs in different disorders associated with abnormal immune reaction. Since cancerous processes may be promoted as a result of interruption of the Th1/Th2 balance, the possible beneficial effect of the MEDICA drugs on tumor proliferation and progression have been next examined. The effect of different concentrations M16αα on cell proliferation was first examined in vitro using the HT29 colon cancer cells as a model for colon cancer. Cells were cultured in the presence of different concentrations of M16αα (50, 100, and 200 μM). Samples obtained from days 1, 2, 3 and 6 were analyzed for cell number using the trypan blue exclusion assay. Proliferation was measured by BrdU incorporation assay.

human CRP [6] = assay: LPS-induced human CRP in hCRPtg mice; type: in vivo; settings: 0.06% (W/W) (about 60 mg/kg body weight/day) for fourteen days, LPS 25 μg/mice last 18 h
Description: The effect of M16αα in decreasing human CRP induced by LPS injection was analyzed in hCRPtg mice treated with M16αα for 14 days and challenged with LPS.
as §1

U266 cells [7] = assay: Cell cycle arrest markers in MM U266 cells (Western blot); type: cell-based; settings: 200 μM, 24 h
Description: U266 cells were cultured with 200 μM M16αα in RPMI 1640 medium with 10% FCS for 24 h, lysed, Western blotted and reacted with anti Cyclin D1, p-P53 (S15) and p-Rb as indicated.

In the case of `CC(C)(CCCCCCCCCCCCC(C)(C)C(=O)O)C(=O)O` [M16αα, 2,2,15,15-tetramethyl-hexadecanedioic acid], the “liver APP and IL-6 gene expression” value [1] was “robustly suppressed”, the cell proliferation (U266 cells [2]) was “complete inhibition” and the “basal levels of human CRP in plasma at the end of treatment” value (human CRP [3]) was 0.396. The “average maximal clinical score” value ([4]; Preventive Group A: 30 mg/kg BW daily from three days prior to MOG challenge to day 37, control group D 4.3) was 1.3, the “average maximal clinical score upon termination of treatment” value ([4]; Preventive Group A: after termination of treatment (vehicle day 37 to day 52), control group D 4.3) was roughly 2.0 and the “average maximal clinical score” value ([4]; group B: 30 mg/kg BW daily from seventh day following MOG injection to day 52, control group D 4.3) was 4.3. The “day of fully established EAE” value ([4]; group B: 30 mg/kg BW daily from seventh day to day 52) was 40 days, the “day of fully established EAE” value ([4]; group C: 30 mg/kg BW daily from first day to day 52) was 40 days and the “average maximal clinical score” value ([4]; group C: 30 mg/kg BW daily from first day to day 52, control group D 4.3) was 3.8. For the same compound, the “anti-apoptotic markers (Bcl-2, Bcl-xL)” value (U266 cells [5]) was “concomitant decrease”, the “cleavage of PARP” value (U266 cells [5]; compared to control cells) was “enhancement” and the BrdU incorporation (HT29 colon cancer cells) was “significantly reduces”. The “LPS-induced levels of human CRP” value (human CRP [6]) was “decreases”, the “Cyclin D1 expression” value (U266 cells [7]) was “reduction” and the “phosphorylated Rb” value (U266 cells [7]) was “reduction”. For the same compound, the “phosphorylated p53” value (U266 cells [7]) was “increase”.
